Reference: ChEMBL document CHEMBL4382242, “Novel racemosin B derivatives as new therapeutic agents for aggressive breast cancer” (Bioorg Med Chem, 2018)

Each compound was assayed on MCF7 (assay: Growth inhibition of human MCF7 cells after 72 hrs by MTT assay). Conditions: MCF7, 72 h.
Type: functional, cell-based

| IC50 [µM] | SMILES |
| --- | --- |
| 16.4 | CN(C)c1ccc(NC(=O)c2cc3c4ccccc4[nH]c3c3c2[nH]c2ccccc23)cc1 |
| 5.58 | COc1ccc2[nH]c3c(C(=O)NCCN4CCCC4)cc4c5ccccc5[nH]c4c3c2c1 |
| 8.08 | O=C(NCc1ccncc1)c1cc2c3ccccc3[nH]c2c2c1[nH]c1ccccc12 |
| 10.8 | CN(C)c1ccccc1NC(=O)c1cc2c3ccccc3[nH]c2c2c1[nH]c1ccccc12 |

What follows are compounds tested on MDA-MB-231 (assay: Growth inhibition of human MDA-MB-231 cells after 72 hrs by MTT assay). Conditions: MDA-MB-231, 72 h.
Type: functional, cell-based

| IC50 [µM] | SMILES |
| --- | --- |
| 7.79 | CN(C)c1ccc(NC(=O)c2cc3c4ccccc4[nH]c3c3c2[nH]c2ccccc23)cc1 |
| 2.84 | COc1ccc2[nH]c3c(C(=O)NCCN4CCCC4)cc4c5ccccc5[nH]c4c3c2c1 |
| 5.64 | O=C(NCc1ccncc1)c1cc2c3ccccc3[nH]c2c2c1[nH]c1ccccc12 |
| 7.81 | CN(C)c1ccccc1NC(=O)c1cc2c3ccccc3[nH]c2c2c1[nH]c1ccccc12 |
